Test results: ChEMBL document CHEMBL4145553, “Design, synthesis, and biological evaluation of novel amide and hydrazide based thioether analogs targeting Histone deacteylase (HDAC) enzymes” (Eur J Med Chem, 2018)
Active and inactive are the calls of the source. The rule behind the calls is not given here.

How the values were obtained:
SF-268 = assay: Growth inhibition of human SF268 cells assessed as cell growth at 10^-8 M incubated for 48 hrs by sulforhodamine B assay relative to control; format: functional; conditions: SF-268, 48 h, read-out: Activity
SF-295 = assay: Growth inhibition of human SF295 cells assessed as cell growth at 10^-8 M incubated for 48 hrs by sulforhodamine B assay relative to control; format: functional; conditions: SF-295, 48 h, read-out: Activity
OVCAR-3 = assay: Growth inhibition of human OVCAR3 cells assessed as cell growth at 10^-8 M incubated for 48 hrs by sulforhodamine B assay relative to control; format: functional; conditions: OVCAR-3, 48 h, read-out: Activity
UO-31 = assay: Growth inhibition of human UO31 cells assessed as cell growth at 10^-8 M incubated for 48 hrs by sulforhodamine B assay relative to control; format: functional; conditions: UO-31, 48 h, read-out: Activity
A549 [1] = assay: Growth inhibition of human A549/ATCC cells assessed as cell growth at 10^-7 M incubated for 48 hrs by sulforhodamine B assay relative to control; format: functional; conditions: A549, 48 h, read-out: Activity
COLO 205 = assay: Growth inhibition of human COLO205 cells assessed as cell growth at 10^-7 M incubated for 48 hrs by sulforhodamine B assay relative to control; format: functional; conditions: COLO 205, 48 h, read-out: Activity
HCT-15 = assay: Growth inhibition of human HCT15 cells assessed as cell growth at 10^-7 M incubated for 48 hrs by sulforhodamine B assay relative to control; format: functional; conditions: HCT-15, 48 h, read-out: Activity
SK-MEL-2 [2] = assay: Growth inhibition of human SK-MEL-2 cells assessed as cell growth at 10^-7 M incubated for 48 hrs by sulforhodamine B assay relative to control; format: functional; conditions: SK-MEL-2, 48 h, read-out: Activity
SK-MEL-5 = assay: Growth inhibition of human SK-MEL-5 cells assessed as cell growth at 10^-7 M incubated for 48 hrs by sulforhodamine B assay relative to control; format: functional; conditions: SK-MEL-5, 48 h, read-out: Activity
OVCAR-8 = assay: Growth inhibition of human OVCAR8 cells assessed as cell growth at 10^-7 M incubated for 48 hrs by sulforhodamine B assay relative to control; format: functional; conditions: OVCAR-8, 48 h, read-out: Activity
NCI/ADR-RES = assay: Growth inhibition of human NCI/ADR-RES cells assessed as cell growth at 10^-7 M incubated for 48 hrs by sulforhodamine B assay relative to control; format: functional; conditions: read-out: Activity
CAKI-1 [3] = assay: Growth inhibition of human Caki1 cells assessed as cell growth at 10^-7 M incubated for 48 hrs by sulforhodamine B assay relative to control; format: functional; conditions: CAKI-1, 48 h, read-out: Activity
Hs-578T [4] = assay: Growth inhibition of human Hs 578T cells assessed as cell growth at 10^-7 M incubated for 48 hrs by sulforhodamine B assay relative to control; format: functional; conditions: read-out: Activity
NCI-H23 = assay: Growth inhibition of human NCI-H23 cells assessed as cell growth at 10^-6 M incubated for 48 hrs by sulforhodamine B assay relative to control; format: functional; conditions: NCI-H23, 48 h, read-out: Activity
KM12 = assay: Growth inhibition of human KM12 cells assessed as cell growth at 10^-6 M incubated for 48 hrs by sulforhodamine B assay relative to control; format: functional; conditions: KM12, 48 h, read-out: Activity
SNB-19 = assay: Growth inhibition of human SNB19 cells assessed as cell growth at 10^-6 M incubated for 48 hrs by sulforhodamine B assay relative to control; format: functional; conditions: SNB-19, 48 h, read-out: Activity
UACC-257 = assay: Growth inhibition of human UACC257 cells assessed as cell growth at 10^-6 M incubated for 48 hrs by sulforhodamine B assay relative to control; format: functional; conditions: UACC-257, 48 h, read-out: Activity
SK-OV-3 = assay: Growth inhibition of human SKOV3 cells assessed as cell growth at 10^-6 M incubated for 48 hrs by sulforhodamine B assay relative to control; format: functional; conditions: SK-OV-3, 48 h, read-out: Activity
CAKI-1 [5] = assay: Growth inhibition of human Caki1 cells assessed as cell growth at 10^-6 M incubated for 48 hrs by sulforhodamine B assay relative to control; format: functional; conditions: CAKI-1, 48 h, read-out: Activity
MDA-MB-231 = assay: Growth inhibition of human MDA-MB-231 cells assessed as cell growth at 10^-6 M incubated for 48 hrs by sulforhodamine B assay relative to control; format: functional; conditions: MDA-MB-231, 48 h, read-out: Activity
A549 [6] = assay: Growth inhibition of human A549/ATCC cells assessed as cell growth at 10^-5 M incubated for 48 hrs by sulforhodamine B assay relative to control; format: functional; conditions: A549, 48 h, read-out: Activity
NCI-H322M [7] = assay: Growth inhibition of human NCI-H322M cells assessed as cell growth at 10^-5 M incubated for 48 hrs by sulforhodamine B assay relative to control; format: functional; conditions: read-out: Activity
Malme-3M [8] = assay: Growth inhibition of human MALME-3M cells assessed as cell growth at 10^-5 M incubated for 48 hrs by sulforhodamine B assay relative to control; format: functional; conditions: read-out: Activity
SK-MEL-2 [9] = assay: Growth inhibition of human SK-MEL-2 cells assessed as cell growth at 10^-5 M incubated for 48 hrs by sulforhodamine B assay relative to control; format: functional; conditions: SK-MEL-2, 48 h, read-out: Activity
Hs-578T [10] = assay: Growth inhibition of human Hs 578T cells assessed as cell growth at 10^-5 M incubated for 48 hrs by sulforhodamine B assay relative to control; format: functional; conditions: read-out: Activity
HCT-116 = assay: Growth inhibition of human HCT116 cells assessed as cell growth at 10^-4 M incubated for 48 hrs by sulforhodamine B assay relative to control; format: functional; conditions: HCT-116, 48 h, read-out: Activity
Malme-3M [11] = assay: Growth inhibition of human MALME-3M cells assessed as cell growth at 10^-4 M incubated for 48 hrs by sulforhodamine B assay relative to control; format: functional; conditions: read-out: Activity
MDA-MB-435 = assay: Growth inhibition of human MDA-MB-435 cells assessed as cell growth at 10^-4 M incubated for 48 hrs by sulforhodamine B assay relative to control; format: functional; conditions: MDA-MB-435, 48 h, read-out: Activity
A498 = assay: Growth inhibition of human A498 cells assessed as cell growth at 10^-4 M incubated for 48 hrs by sulforhodamine B assay relative to control; format: functional; conditions: A498, 48 h, read-out: Activity
NCI-H322M [12] = assay: Growth inhibition of human NCI-H322M cells incubated for 48 hrs by sulforhodamine B assay; format: functional
SK-MEL-2 [13] = assay: Growth inhibition of human SK-MEL-2 cells incubated for 48 hrs by sulforhodamine B assay; format: functional; conditions: SK-MEL-2, 48 h
HL-60 = assay: Induction of apoptosis in human HL60 cells assessed as increase in caspase-3 expression by qRT-PCR method; format: functional, cell-based
Histone deacetylase 8 = Histone deacetylase 8 (Homo sapiens, UniProt Q9BY41); assay: Inhibition of HDAC8 (unknown origin) by ELISA
[14] = read-out: LC50 (the source's name)
[15] = read-out: pLC50 (the source's name) (converted)

Sequence of Histone deacetylase 8 (Q9BY41 whole entry): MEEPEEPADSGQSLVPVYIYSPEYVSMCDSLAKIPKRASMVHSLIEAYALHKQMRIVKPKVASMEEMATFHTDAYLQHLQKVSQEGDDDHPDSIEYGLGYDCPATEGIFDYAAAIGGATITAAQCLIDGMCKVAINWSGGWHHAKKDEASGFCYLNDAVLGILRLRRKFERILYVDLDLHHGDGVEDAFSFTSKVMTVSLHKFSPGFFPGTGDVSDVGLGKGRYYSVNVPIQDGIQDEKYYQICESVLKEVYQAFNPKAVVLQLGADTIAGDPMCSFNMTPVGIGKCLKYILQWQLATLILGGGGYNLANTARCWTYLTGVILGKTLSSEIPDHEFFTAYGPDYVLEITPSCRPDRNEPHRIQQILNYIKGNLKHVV

CCS/C(Nc1ccccc1)=C(\C#N)C(=O)Nc1ccc(OC)cc1
growth at 0.01 µM (SF-268): 101%
growth at 0.01 µM (SF-295): 94%
growth at 0.01 µM (OVCAR-3): 97%
growth at 0.01 µM (UO-31): 93%
growth at 0.1 µM (A549 [1]): 94%
growth at 0.1 µM (COLO 205): 97%
growth at 0.1 µM (HCT-15): 88%
growth at 0.1 µM (SK-MEL-2 [2]): 102%
growth at 0.1 µM (SK-MEL-5): 90%
growth at 0.1 µM (OVCAR-8): 99%
growth at 0.1 µM (NCI/ADR-RES): 95%
growth at 0.1 µM (CAKI-1 [3]): 85%
growth at 0.1 µM (Hs-578T [4]): 96%
growth at 1 µM (NCI-H23): 85%
growth at 1 µM (KM12): 68%
growth at 1 µM (SNB-19): 84%
growth at 1 µM (UACC-257): 93%
growth at 1 µM (SK-OV-3): 93%
growth at 1 µM (CAKI-1 [5]): 73%
growth at 1 µM (MDA-MB-231): 93%
growth at 10 µM (A549 [6]): 35%
growth at 10 µM (NCI-H322M [7]): 38%
growth at 10 µM (Malme-3M [8]): 61%
growth at 10 µM (SK-MEL-2 [9]): 11%
growth at 10 µM (Hs-578T [10]): 28%
growth at 100 µM (HCT-116): -11%
growth at 100 µM (Malme-3M [11]): 45%
growth at 100 µM (MDA-MB-435): -35%
growth at 100 µM (A498): -12%
GI50 (NCI-H322M [12]; read-out: GI50): 5.81 µM
CC50 (NCI-H322M [12]; [14]): > 100 µM
TGI (NCI-H322M [12]; read-out: TGI): > 100 µM
GI50 (NCI-H322M [12]; read-out: pGI50 (converted)): 5.75 µM
CC50 (NCI-H322M [12]; [15]): > 100 µM
TGI (NCI-H322M [12]; read-out: pTGI): > 100 µM
GI50 (SK-MEL-2 [13]; read-out: GI50): 3.01 µM
CC50 (SK-MEL-2 [13]; [14]): > 100 µM
TGI (SK-MEL-2 [13]; read-out: TGI): > 100 µM
GI50 (SK-MEL-2 [13]; read-out: pGI50 (converted)): 3.02 µM
CC50 (SK-MEL-2 [13]; [15]): > 100 µM
TGI (SK-MEL-2 [13]; read-out: pTGI): > 100 µM
Activity (HL-60): Active
IC50 (Histone deacetylase 8): 0.295 µM

CCS/C(Nc1ccccc1)=C(\C#N)C(=O)N/N=C\c1ccc(Cl)cc1Cl
growth at 0.01 µM (SF-268): 94%
growth at 0.01 µM (SF-295): 95%
growth at 0.01 µM (OVCAR-3): 102%
growth at 0.01 µM (UO-31): 94%
growth at 0.1 µM (A549 [1]): 92%
growth at 0.1 µM (COLO 205): 97%
growth at 0.1 µM (HCT-15): 87%
growth at 0.1 µM (SK-MEL-2 [2]): 101%
growth at 0.1 µM (SK-MEL-5): 90%
growth at 0.1 µM (OVCAR-8): 96%
growth at 0.1 µM (NCI/ADR-RES): 97%
growth at 0.1 µM (CAKI-1 [3]): 84%
growth at 0.1 µM (Hs-578T [4]): 92%
growth at 1 µM (NCI-H23): 90%
growth at 1 µM (KM12): 90%
growth at 1 µM (SNB-19): 86%
growth at 1 µM (UACC-257): 92%
growth at 1 µM (SK-OV-3): 92%
growth at 1 µM (CAKI-1 [5]): 67%
growth at 1 µM (MDA-MB-231): 89%
growth at 10 µM (A549 [6]): 29%
growth at 10 µM (NCI-H322M [7]): 42%
growth at 10 µM (Malme-3M [8]): 49%
growth at 10 µM (SK-MEL-2 [9]): 16%
growth at 10 µM (Hs-578T [10]): 18%
growth at 100 µM (HCT-116): 3%
growth at 100 µM (Malme-3M [11]): 26%
growth at 100 µM (MDA-MB-435): -52%
growth at 100 µM (A498): -2%
GI50 (NCI-H322M [12]; read-out: GI50): 6.87 µM
CC50 (NCI-H322M [12]; [14]): > 100 µM
TGI (NCI-H322M [12]; read-out: TGI): > 100 µM
GI50 (NCI-H322M [12]; read-out: pGI50 (converted)): 6.92 µM
CC50 (NCI-H322M [12]; [15]): > 100 µM
TGI (NCI-H322M [12]; read-out: pTGI): > 100 µM
GI50 (SK-MEL-2 [13]; read-out: GI50): 3.24 µM
CC50 (SK-MEL-2 [13]; [14]): > 100 µM
TGI (SK-MEL-2 [13]; read-out: TGI): 43.6 µM
GI50 (SK-MEL-2 [13]; read-out: pGI50 (converted)): 3.24 µM
CC50 (SK-MEL-2 [13]; [15]): > 100 µM
TGI (SK-MEL-2 [13]; read-out: pTGI): 43.7 µM
Activity (HL-60): Active
IC50 (Histone deacetylase 8): 0.202 µM
